Assays:
Large Yorkshire piglets = assay: Growth and blood examination of piglets after a single administration on the third day after birth (Example 1)
Procedure: Thereafter, usual management was carried out, feeding was started on the 14th day after birth, and body weights were measured and blood samples were collected on the 21st day after birth to carry out inspections in accordance with usual way. Also, body weights were measured at the time of shipping after about 6 months, and the number of days reaching a shipping body weight criterion of 110 kg (required days for 110 kg) was calculated. The tests were carried out using 12 animals in each plot, and the values were calculated as average values by excluding pigs which came off the test due to a disease and the like.
DG (daily gain; kg/day)=shipping body weight (kg)÷raised days (day)
Required days for 110 kg (day)=110 (kg)÷DG (kg/day)

piglets = assay: Growth of piglets given feed with the additive from the 14th day after birth (Example 2); assay type: in vivo, pig
Procedure: Using piglets born during a period of from October through November in 2000, feeding was carried out on the 14th day after their birth. […] In this case, the test was carried out using 10 head in each plot, and the average values were calculated.

[1] = 21st day after birth, treatment on 3rd day after birth

## Cl.NCC(=O)CCC(=O)O [ALA, 5-aminolevulinic acid hydrochloride]
Large Yorkshire piglets; 21st day after birth
  Body weight: relative value to 100 at the commencement of the test on the 3rd day after birth: 233%
Large Yorkshire piglets; [1]
  B12: vitamin B12 concentration in serum: 240 pg/mL
  Fe: serum iron concentration in serum: 44 µg/dL
  Hb: hemoglobin concentration in whole blood sample: 8.5 g/dL
  Ht: blood cell volume ratio in whole blood sample: 30.5%
  TP: total serum protein concentration in serum: 5.8 g/dL
Large Yorkshire piglets; calculated from shipping body weight after about 6 months, 110 kg ÷ daily gain
  Required days for 110 kg (number of days reaching shipping body weight criterion of 110 kg): 183 days
Large Yorkshire piglets; examination about 6 months after birth, 12 animals per plot
  Frequency of disease onset: 0
Large Yorkshire piglets; in and after the 21st day
  Pigs which came off the test system due to a disease: diseases were not found
Large Yorkshire piglets; until the 21st day after birth
  Pigs which came off the test plots due to a disease and the like: not found
piglets; 10 mg 5-aminolevulinic acid hydrochloride per 1 kg feed, with or without 10 mg ferric ammonium citrate per 1 kg feed, 10 head per plot
  Required days for 110 kg: 172
piglets; feed additive from 14th day after birth
  Growth (in words): markedly enhanced
